According to patent US20130142879A1, “SUSPENSION FORMULATIONS” (INNOVATA BIOMED LIMITED, priority 2008, published 2013):

Legend:
[1] = Solubility of drugs within HFA 227 with ethanol addition
[2] = Solubility of suspension stabilisers in HFA 134a or HFA 227 with ethanol and additives; type: physicochemical
Experimental: Trehalose has been determined to be insoluble (observed to be <0.12 μg/50 μl) in HFA 134a or HFA 227 with up to 12% w/w ethanol and only slightly soluble in 30% w/w ethanol (3.3 μg/[…] in HFA 134a, 2.7 μg/50 μl in HFA 227).
Leucine has been determined to be insoluble (observed to be <0.08 μg/50 μl) in HFA 134a or HFA 227 with up to 30% w/w ethanol.

[3] = Solubility of drugs within HFA 134a with ethanol addition

SMILES | Solubility within HFA 227 ([1]; EtOH addition 0 % w/w) | Solubility within HFA 227 ([1]; EtOH addition 1 % w/w) | Solubility within HFA 227 ([1]; EtOH addition 5 % w/w) | Solubility within HFA 134a ([3]; EtOH addition 0 % w/w) | Solubility within HFA 134a ([3]; EtOH addition 1 % w/w) | Solubility within HFA 134a ([3]; EtOH addition 5 % w/w) | further results
OC[C@H]1O[C@H](O[C@H]2O[C@H](CO)[C@@H](O)[C@H](O)[C@H]2O)[C@H](O)[C@@H](O)[C@@H]1O [Trehalose] | – | – | – | – | – | – | Solubility ([1]; 30% w/w ethanol in HFA 227): 2.7 μg/50 μl
CC(C)C[C@H](N)C(=O)O [Leucine] | – | – | – | – | – | – | Solubility ([2]; 3% w/w ethanol with 0.5% w/w propylene glycol or 0.01% w/w oleic acid, HFA 134a or HFA 227): < 0.08 μg/50 μl; Solubility ([2]; 12% w/w ethanol with 1.2% w/w water, HFA 134a or HFA 227): < 0.08 μg/50 μl; Solubility ([2]; HFA 134a or HFA 227 with up to 30% w/w ethanol): < 0.08 μg/50 μl
CCCC1O[C@@H]2C[C@H]3[C@@H]4CCC5=CC(=O)C=C[C@]5(C)[C@H]4[C@@H](O)C[C@]3(C)[C@]2(C(=O)CO)O1 (some centres unmarked) [Budesonide] | 1.66 μg per 50 μl | 5.61 μg per 50 μl | 45.16 μg per 50 μl | – | – | – | –
CCC(=O)O[C@]1(C(=O)SCF)[C@H](C)C[C@H]2[C@@H]3C[C@H](F)C4=CC(=O)C=C[C@]4(C)[C@@]3(F)[C@@H](O)C[C@@]21C [Fluticasone Propionate] | 0.22 μg per 50 μl | 0.83 μg per 50 μl | 4.78 μg per 50 μl | – | – | – | Solubility within HFA 227 ([1]; EtOH addition 0.2 % w/w): 0.23 μg per 50 μl
C[N+]1(C)[C@@H]2C[C@@H](OC(=O)C(O)(c3cccs3)c3cccs3)C[C@H]1[C@@H]1O[C@@H]12 [Tiotropium Bromide] | 0.00 μg per 50 μl | 0.00 μg per 50 μl | 0.07 μg per 50 μl | 0.00 μg per 50 μl | 0.01 μg per 50 μl | 0.33 μg per 50 μl | –
COc1ccc(CC(C)NCC(O)c2ccc(O)c(NC=O)c2)cc1 (centres unmarked) [Formoterol] | 0.00 μg per 50 μl | 0.02 μg per 50 μl | 0.23 μg per 50 μl | 0.00 μg per 50 μl | 0.03 μg per 50 μl | 0.73 μg per 50 μl | –
